Data from US11597739B2, “Enhancing CD8+ T cells for adoptive T cell therapy by inhibiting PTPN1 (PTP1B) and PTPN2 (TC-PTP)” (The Royal Institution for the Advancement of …, priority 2017, dated 2023).

Tests used:
[1] = test system: mouse activated CD8 T cells; assay: Tcm differentiation and activation markers of stimulated mouse CD8 T cells (flow cytometry); type: cell-based
Experimental: 8) Stimulation of Mouse CD8 T Cells
2 μg/ml of 145-2C11 Hamster anti-Mouse CD3e in 300 μl of PBS are plated in 24 flat bottom well non-TC treated plates. Incubate O/N at 4° C. CD8 T cells from spleens of 8-12 weeks old OT-1 transgenic mice are isolated. 4×10^5 cells/ml are counted and resuspended in complete RPMI (RPMI+10% FBS heat inactivated at 55° C. for 45 min+Pen/Strep+55 μM β-Mercaptoethanol). The following 2× solutions are prepared:
a. Anti-Mouse CD28 10 μg/ml 40 U/ml rmIL-2. (40 ml)
0.5 ml of 2× solution is added to the corresponding wells. Incubate for 4-8 days. Every 2 days add inhibitor to the corresponding concentration. When the cells are confluent, expand to 6 cm tissue culture plates adding 4 ml of complete RPMI+20 U/ml of IL-2 and in b add 10 μM K884.
Calculate the specific cell lysis as follows: Specific cell lysis=((Sample−BF)/(AF−BF))×100 10) Flow Cytometry 1. Cell Activation • a. Wash cells with 1 ml of culture medium; • b. Centrifuge cells for 5 min at 300 g; • c. Resuspend cells in culture medium; • d. Prepare 2× solutions (negative control with only culture medium, Positive condition with 50 ng/mL of PMA and 500 ng/mL of lonomycin); • e. Plate 100 μL of cell suspension in 96 well plates (U-bottom); • f. Add 100 μL of 2× solutions in appropriate wells; • g. Incubate 4 hours at 37 C, 5% CO2. 2. Extracellular Staining • a. Record cell quantity transfers per tube; • b. Wash cells with 1 mL of PBS+2% FBS; • c. Centrifuge cells for 5 min at 300 g; • d. Empty tubes by inversion; • e. Add the antibodies for extracellular staining; • f. Incubate 20 min at 4° C.; • g. Wash cells with 1 mL of PBS+2% FBS; • h. Centrifuge cells for 5 min at 300 g; • i. Empty tubes by inversion; • j. Ressuspend cells in 100 μL fixation/permeabilisation buffer (eBioscience, #00-5223-56, 1 volume of concentrate buffer+3 volumes of diluent buffer) • k. Incubate 30 min at room temperature or overnight at 4° C. 3. Intracellular Staining • a. Wash cells with 1 mL of permeabilization buffer (eBioscience, #00-8333-56, dilution 1/10 in ddH2O); • b. Centrifuge cells for 5 min at 300 g; • c. […]

human T cells = assay: Treatment of human T cells with K884: central memory differentiation and cytokine production; type: cell-based
Experimental: Calculate the specific cell lysis as follows: Specific cell lysis=((Sample−BF)/(AF−BF))×100 10) Flow Cytometry 1. Cell Activation • a. Wash cells with 1 ml of culture medium; • b. Centrifuge cells for 5 min at 300 g; • c. Resuspend cells in culture medium; • d. Prepare 2× solutions (negative control with only culture medium, Positive condition with 50 ng/mL of PMA and 500 ng/mL of lonomycin); • e. Plate 100 μL of cell suspension in 96 well plates (U-bottom); • f. Add 100 μL of 2× solutions in appropriate wells; • g. Incubate 4 hours at 37 C, 5% CO2. 2. Extracellular Staining • a. Record cell quantity transfers per tube; • b. Wash cells with 1 mL of PBS+2% FBS; • c. Centrifuge cells for 5 min at 300 g; • d. Empty tubes by inversion; • e. Add the antibodies for extracellular staining; • f. Incubate 20 min at 4° C.; • g. Wash cells with 1 mL of PBS+2% FBS; • h. Centrifuge cells for 5 min at 300 g; • i. Empty tubes by inversion; • j. Ressuspend cells in 100 μL fixation/permeabilisation buffer (eBioscience, #00-5223-56, 1 volume of concentrate buffer+3 volumes of diluent buffer) • k. Incubate 30 min at room temperature or overnight at 4° C. 3. Intracellular Staining • a. Wash cells with 1 mL of permeabilization buffer (eBioscience, #00-8333-56, dilution 1/10 in ddH2O); • b. Centrifuge cells for 5 min at 300 g; • c. Empty tubes by inversion; • d. Add the intracellular antibodies; • e. Incubate 1 hour at 4° C.; • f. Wash cells with 1 mL of permeabilization buffer; • g. Centrifuge cells for 5 min at 300 g; • h. Empty tubes by inversion; • i. Keep tubes at 4° C. shelter from light 4. Human PBMC Isolation by Ficoll • a. Prepare 50 ml tubes; • b. Transfer blood into 50 ml tubes, with maximum of 17.5 ml per tube; • c. Add sterile PBS to dilute blood to reach 35 ml; • d. Use a dropped-in Pasteur pipet used as a tunnel; add 15 ml of Ficoll; • e. Gently install the tubes and centrifuge at 1000 g for 20 min, RT without brakes; • f. Using a 25 ml pipet, harvest the interface ring of PBMC without too much Ficoll and transfer into a 50 ml tube (maximum 15 ml per tube); • g. […]

[2] = 14 days with IL-7 and IL-15, restimulated with PMA and Ionomycin 4 hours

CCOC(=O)c1cc2cc(C(F)(F)P(=O)(O)O)c(Br)cc2s1 [Ex. 1, ((6-BROMO-2-(ETHOXYCARBONYL)BENZO[B]THIOPHEN-5-YL)DIFLUOROMETHYL)PHOSPHONATE]
expression of IL-2 receptor alpha (CD25), fluorescence ([1]; activated mouse CD8 cells, Tcm gate, compared to untreated): increase on fluorescence closer to one order of magnitude
percentage of Tcm population relative to cells with IL-15 alone ([1]; followed by 5 days incubation with recombinant murine IL-15): ~2 times
differentiation into Tcm cells (CD62Lhigh-CD27high) ([1]; mouse activated CD8 T cells, compared to untreated cells): increased differentiation into Tcm cells at higher rates than the observed in untreated cells
TNFα secretion (human T cells; [2]): enhancement of the proinflammatory cytokine TNFα secretion
production of IFNγ (human T cells; [2]): production of IFNγ is maintained
response of peripheral blood human CD8 T cells to treatment (human T cells; human CD8 T cells compared to mouse CD8 T cells): respond in equivalent manner to mouse CD8 T cells
